# Test results from article PMC9028714 (Journal of Personalized Medicine, 2022).
# How the values were obtained:
# [1] = Apixaban and rivaroxaban capillary blood concentrations (DBS, LC-MS/MS) in hospitalized patients; format: in vivo, human; settings: concentrations normalized by the dosing regimen
# Protocol: Comedications were systematically screened to record patients taking CYP3A4/5 and/or P-gp inhibitors and/or inducers using the Lexicomp drug interaction analysis tool and the Geneva Table of CYP substrates, inhibitors, and inducers. Adequacy of dosage was assessed according to the SmPC criteria (indication, age, CrCl, and weight).
# The DBS concentrations were determined using a validated LC-MS/MS method.
# After agitation during 10 min, 10 μL of the supernatant was injected into the LC-MS/MS system. Separation was performed with a Kinetex® C18 column (50 × 2.1 mm, 2.6 µm) from Phenomenex (Brechbühler, Schlieren, Switzerland) under gradient conditions. The mobile phase was composed of formic acid 0.1% in water and in acetonitrile. The total run time was 7 min. Detection of analytes was obtained in positive mode using multiple reaction monitoring (MRM). Instrument parameters were as follows: curtain gas = 40 psi, collision gas = high, IonSpray voltage = […], temperature = 550 °C, ion source gas 1 = 60 psi, ion source gas 2 = 60 psi.
# [2] = Multivariable linear regression: genotype of CYP3A and P-gp vs AUC0–6h or C2h of apixaban and rivaroxaban; format: in vivo, human; settings: for observed variability of AUC0–6h explained by the model: Table 4; for C2h, β (CI95%): Age 65–74 years / C2h, β (CI95%): Age 75–84 years / C2h, β (CI95%): Age >85 years: reference category <65 years; for C2h, β (CI95%): Gender, Female: reference category Male; for C2h, β (CI95%): Genotype ABCB1 1236C>T, Heterozygous for mutation / C2h, β (CI95%): Genotype ABCB1 1236C>T, Homozygous for mutation / C2h, β (CI95%): Genotype ABCB1 2677G>T, Heterozygous for mutation / C2h, β (CI95%): Genotype ABCB1 2677G>T, Homozygous for mutation / C2h, β (CI95%): Genotype ABCB1 3435C>T, Heterozygous for mutation / C2h, β (CI95%): Genotype ABCB1 3435C>T, Homozygous for mutation: reference category No mutation
# Protocol: Genotyping of selected CYP3A4/5 and ABCB1 polymorphisms was carried out on QuantStudio^TM 12K Flex Real-Time (RT) PCR System with TaqMan® OpenArray^TM genotyping assays and TaqMan® MGB Probe Validated Single Nucleotide Polymorphism (SNP) Genotyping Assays (Applied Biosystems, Thermo Fisher Scientific, Waltham, MA, USA), respectively. These methods were previously described in detail in the literature. […] All SNPs of CYP3A4/5 integrated in the TaqMan® OpenArray^TM PGx Express Panel (Thermo Fisher Scientific, Waltham, MA, USA) were considered and are listed in Supplementary Table S1. Finally, raw genotyping data were processed with the TaqMan® Genotyper software (Thermo Fisher Scientific, Waltham, MA, USA) according to the manufacturer’s protocol.
# AlleleTyper™ Software and translational tables (Thermo Fisher Scientific and PharmGKB, Stanford, CA, USA) were used to translate genetic pattern information from genotyping (SNPs) to pharmacogenomic gene-level star (*) nomenclature. Allele and genotype frequencies were determined, and Hardy–Weinberg equilibrium (HWE) was tested. […] The CYP3A activity predicted from the genotype combines the effects of CYP3A4 and CYP3A5 SNPs on enzyme activities, as listed in the PharmVar and PharmGKB databases. Patients were classified into poor metabolizer (PM), intermediate metabolizer (IM), normal metabolizer (NM), and ultra-rapid metabolizer (UM) according to the classification described by Andreu et al..
# Missing data were excluded from the analysis.
# CYP3A = tested on: CYP3A; set-up: method as in PMID 32157630; settings: cited from earlier work
# CYP2J2 and CYP1A2 = tested on: CYP2J2 and CYP1A2; set-up: method as in PMID 32157630; settings: cited from earlier work
# [3] = set-up: method as in PMID 33808739, PMID 30223963; settings: cited from earlier work
# [4] = Multivariable linear regression: phenotypic activity of CYP3A and P-gp vs AUC0–6h or C2h of apixaban and rivaroxaban; settings: for observed variability of AUC0–6h predicted by the model: Table 3; for C2h, β (CI95%): Age 65–74 years / C2h, β (CI95%): Age 75–84 years / C2h, β (CI95%): Age >85 years: reference category <65 years; for C2h, β (CI95%): Gender, Female: reference category Male;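 on all read-outs here: outcome C2h is the drug concentration 2 h post-dose, with regression coefficient errors from a sandwich estimator after a Breusch–Pagan heteroscedasticity check and missing data excluded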
# Protocol: Dependent variables (outcomes) for both drugs were defined as being the values of AUC0–6h and concentration 2 h after drug administration (C2h). […] The Breusch–Pagan test was used to detect a potential heteroscedasticity issue, and consistent standard errors of the regression coefficients were assessed with a sandwich estimator. […] In addition, association between dependent variables and predicted activity of CYP3A and P-gp from genotype were also adjusted for a pre-specified set of potential confounding factors (gender, CrCl, BMI, age, dose). Spearman’s correlation was used to assess the concordance between genotype and phenotype of CYP3A and P-gp. Missing data were excluded from the analysis.
# CYP2J2 = tested on: CYP2J2; set-up: method as in PMID 32157630; settings: cited from earlier work
# [5] = genotype model, Table S4, reference category 2.5 mg bid
# [6] = genotype model, Table S4, reference category IM
# [7] = phenotype model, Table S3, reference category 2.5 mg bid
# [8] = genotype model, Table S4, reference category 10 mg od
# [9] = phenotype model, Table S3, reference category 10 mg od
SMILES,inter-individual CV of blood concentrations ([1]; administered bid) [%],observed variability of AUC0–6h explained by the model [2],"C2h, β (CI95%): ALAT, per unit ([2]; genotype model, Table S4)","C2h, β (CI95%): CrCl, per unit ([2]; genotype model, Table S4)","C2h, β (CI95%): Intercept ([2]; genotype model, Table S4)","C2h, β (CI95%): Age 65–74 years ([2]; genotype model, Table S4)","C2h, β (CI95%): Age 75–84 years ([2]; genotype model, Table S4)","C2h, β (CI95%): Age >85 years ([2]; genotype model, Table S4)","C2h, β (CI95%): Predicted phenotype from genotype CYP3A, PM [2, 6]","C2h, β (CI95%): Gender, Female ([2]; genotype model, Table S4)","C2h, β (CI95%): Genotype ABCB1 1236C>T, Heterozygous for mutation ([2]; genotype model, Table S4)","C2h, β (CI95%): Genotype ABCB1 1236C>T, Homozygous for mutation ([2]; genotype model, Table S4)","C2h, β (CI95%): Genotype ABCB1 2677G>T, Heterozygous for mutation ([2]; genotype model, Table S4)","C2h, β (CI95%): Genotype ABCB1 2677G>T, Homozygous for mutation ([2]; genotype model, Table S4)","C2h, β (CI95%): Genotype ABCB1 3435C>T, Heterozygous for mutation ([2]; genotype model, Table S4)","C2h, β (CI95%): Genotype ABCB1 3435C>T, Homozygous for mutation ([2]; genotype model, Table S4)",share of metabolism CYP3A is responsible for (CYP3A) [%],excreted by the kidney [3],observed variability of AUC0–6h predicted by the model ([4]; phenotype model) [%],"C2h, β (CI95%): ALAT, per unit ([4]; phenotype model, Table S3)",other results
COc1ccc(-n2nc(C(N)=O)c3c2C(=O)N(c2ccc(N4CCCCC4=O)cc2)CC3)cc1 [Apixaban],47.7,approximately 40%,0.07 (−0.17 to 0.32),−0.48 (−0.75 to −0.21),80.68 (42.43 to 118.93),5.10 (−15.52 to 25.71),9.29 (−10.54 to 29.12),14.31 (−10.69 to 39.31),−18.61 (−36.00 to −1.21),5.44 (−5.98 to 16.87),−1.26 (−23.09 to 20.57),−9.35 (−36.76 to 18.06),8.08 (−14.86 to 31.01),9.94 (−17.81 to 37.69),−7.52 (−24.64 to 9.60),−2.70 (−18.04 to 12.65),15,25–30%,47,0.06 (−0.13 to 0.25),"C2h, β (CI95%): Dose 5 mg bid [2, 5]: 51.17 (37.82 to 64.51); C2h, β (CI95%): Dose 10 mg bid [2, 5]: 113.17 (81.73 to 145.52); contribution of CYP2J2 and CYP1A2 together to metabolism (CYP2J2 and CYP1A2): 6%; decrease in CrCl with an effect comparable to P-gp phenoconversion NM to PM ([4]; according to the AUC0–6h model): 37.6 mL/min/1.73 m^2; C2h, β (CI95%): CrCl, per unit ([4]; phenotype model, Table S3): −0.40 (−0.67 to −0.13); C2h, β (CI95%): Intercept ([4]; phenotype model, Table S3): −0.46 (−51.98 to 51.05); C2h, β (CI95%): MRmidazolam, per log10 ([4]; phenotype model, Table S3): 6.07 (−8.08 to 20.22); C2h, β (CI95%): Weight, per kg ([4]; phenotype model, Table S3): −0.02 (−0.37 to 0.33); C2h, β (CI95%): Dose 5 mg bid [4, 7]: 51.97 (41.16 to 62.78); C2h, β (CI95%): Dose 10 mg bid [4, 7]: 116.28 (80.44 to 152.12); C2h, β (CI95%): Age 65–74 years ([4]; phenotype model, Table S3): 8.61 (−10.00 to 27.23); C2h, β (CI95%): Age 75–84 years ([4]; phenotype model, Table S3): 13.69 (−5.59 to 32.97); C2h, β (CI95%): Age >85 years ([4]; phenotype model, Table S3): 17.73 (−3.37 to 38.82); C2h, β (CI95%): Gender, Female ([4]; phenotype model, Table S3): 4.07 (−5.94 to 14.08)"
O=C(NC[C@H]1CN(c2ccc(N3CCOCC3=O)cc2)C(=O)O1)c1ccc(Cl)s1 [Rivaroxaban],41.5,~18%,0.08 (−0.06 to 0.22),−0.14 (−0.61 to 0.32),−10.99 (−88.50 to 66.51),24.56 (8.41 to 40.71),25.66 (−1.56 to 52.88),19.86 (−9.35 to 49.08),24.72 (−8.3 to 57.73),2.56 (−12.47 to 17.59),−16.43 (−46.63 to 13.77),−1.63 (−39.30 to 36.03),23.36 (−8.85 to 55.56),16.54 (−19.70 to 52.77),−8.53 (−32.11 to 15.04),−12.17 (−32.48 to 8.14),18,66%,27,0.05 (−0.14 to 0.23),"inter-individual CV of blood concentrations ([1]; administered od): 51.8%; C2h, β (CI95%): Weight, per kg ([2]; genotype model, Table S4): 0.46 (0.04 to 0.88); C2h, β (CI95%): Dose 15 mg bid [2, 8]: 60.99 (29.95 to 92.04); C2h, β (CI95%): Dose 15 mg od [2, 8]: 29.53 (−2.56 to 61.63); C2h, β (CI95%): Dose 20 mg od [2, 8]: 57.40 (22.52 to 92.28); C2h, β (CI95%): Predicted phenotype from genotype CYP3A, NM [2, 6]: 20.74 (1.20 to 40.28); contribution of CYP2J2 to total clearance (CYP2J2): 14%; C2h, β (CI95%): CrCl, per unit ([4]; phenotype model, Table S3): −0.017(−0.49 to 0.34); C2h, β (CI95%): Intercept ([4]; phenotype model, Table S3): −77.74 (−161.1 to 5.63); C2h, β (CI95%): MRmidazolam, per log10 ([4]; phenotype model, Table S3): −8.35 (−30.17 to 13.47); C2h, β (CI95%): Weight, per kg ([4]; phenotype model, Table S3): 0.23 (−0.18 to 0.63); C2h, β (CI95%): Dose 15 mg bid [4, 9]: 41.5 (0.24 to 82.75); C2h, β (CI95%): Dose 15 mg od [4, 9]: 18.95 (−21.77 to 59.66); C2h, β (CI95%): Dose 20 mg od [4, 9]: 39.98 (−4.47 to 84.44); C2h, β (CI95%): Age 65–74 years ([4]; phenotype model, Table S3): 15.15 (−0.06 to 30.37); C2h, β (CI95%): Age 75–84 years ([4]; phenotype model, Table S3): 10.55 (−12.65 to 33.75); C2h, β (CI95%): Age >85 years ([4]; phenotype model, Table S3): 7.97 (−15.72 to 31.67); C2h, β (CI95%): Gender, Female ([4]; phenotype model, Table S3): 1.91 (−13.03 to 16.84)"
